We go through five compounds from US20250353891A1 (MEDIMMUNE LIMITED, priority 2022, published 2025).

Broadly, the fraction remaining is the share of the starting amount still present when the sample was taken. The term EC50 denotes the concentration giving half of the maximal effect.

Data set [1] in a line: Proteolytic resistance to FasSSIF/Pancreatin. The conditions noted are these: simulated intestinal fluid. The class given is in vitro ADME. The method, then:
A fresh suspension of FasSSIF/P (Fasted-State Simulated Intestinal Fluid+USP Pancreatin®) was prepared according to that described by Galia, Nicolaides, Hörter, Löbenberg, Reppas and Dressman: Pharm. Res. 15 (1998) 698-705, and USP XL requirements. The resulting preparation was used immediately without storage.
Peptide for evaluation (1.0 mg) was dissolved in pre-warmed FasSSIF without Pancreatin® (200 μL). To this fresh FasSSIF/Pancreatin® (100 μL) was added to initiate potential proteolysis. Following momentary vortexing of the reaction tube the mixture was incubated at 37° C. in a thermostatic water bath for the duration of the experiment. 25 μL aliquot of the co-incubated peptide-enzyme mixture was periodically withdrawn (t=0, 5, 10 15 and 30 min) and quenched immediately by addition to a solution of 10% TFA in 1:1 water/acetonitrile (75 μL) to arrest proteolytic activity. Quenched samples were centrifuged (7800 RPM, 3 mins) to pellet solids and 10 μL aliquots of the supernatant solution were analyzed using analytical RP-HPLC as follows: Analytical RP-HPLC method: Agilent Polaris C8-A column (4.6×100 mm, 3 micron) eluted with a linear binary gradient of 10-90% MeCN (0.1% TFA v/v) in water (0.1% TFA v/v) over either 10 or 15 mins at 1.5 mL min^−1 at 40° C. with detection by UV absorption at 210 nm. Manual integration (AUC) allowed estimation of remaining intact peptide over the time course of the experiment.

For data set [2], the target named is human GLP-1 receptor (hGLP-1R) (Homo sapiens, UniProt P43220). The experiment in a line: cAMP production (HTRF) in CHO cells expressing hGLP-1R. The class given is cell-based. Further details: expressed in transfected cells. The conditions noted are these: for EC50: Table 6, peptides modified at position 17, cAMP in CHO hGLP-1R cells, geometric mean, read-out: hGLP-1R EC50; for % Relative Potency Ratio: Table 6, % GLP-1R activity relative to GLP-1 / % GlucR activity relative to glucagon. In a few lines:
(§1)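 Read-out: HTRF cAMP (anti-cAMP cryptate donor, cAMP-d2 acceptor in conjugate/lysis buffer), converted to % Delta F and fitted by 4-parameter logistic for EC50. Cell densities were 1×10^5 cells/mL (hGLP-1R) or 2×10^5 cells/mL (hGCGR). Stimulation lasted 30 min at room temperature.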
In general terms: Changes in cAMP serve as a functional read-out for many G protein-coupled receptors.

Data set [3] concerns the target human glucagon receptor (hGCGR) (Homo sapiens, UniProt P47871). The experiment in a line: cAMP production (HTRF) in CHO cells expressing hGCGR. The class given is cell-based. Further details: expressed in transfected cells. The conditions noted are these: Table 6, peptides modified at position 17; cAMP in CHO hGCGR cells; geometric mean; read-out: hGluc-R EC50. The method in brief:
as §1

SMILES strings stand for the structures. Starred links: 1 amine or outer side, 2 acyl side, 3 side chain; linkers in the order of their positions; H or OH if unused. Non-standard residues stand in square brackets, D forms with d. Residues, ends and D or L forms follow the SMILES beside them. Groups on a side chain read outwards from the residue. *: point of attachment. Dip = N[C@H](C(=O)O)C(c1ccccc1)c1ccccc1; γGlu = O=C(O)[C@H](CCC(=O)[*:2])N[*:1]; Stearoyl = CCCCCCCCCCCCCCCCCC(=O)*; αMeF = C[C@](N)(Cc1ccccc1)C(=O)O; Cha = N[C@@H](CC1CCCCC1)C(=O)O; PEG2 = NCCOCCOCCC(=O)O; Aib = CC(C)(N)C(=O)O

Sequence of human glucagon receptor (hGCGR) (P47871 26-477): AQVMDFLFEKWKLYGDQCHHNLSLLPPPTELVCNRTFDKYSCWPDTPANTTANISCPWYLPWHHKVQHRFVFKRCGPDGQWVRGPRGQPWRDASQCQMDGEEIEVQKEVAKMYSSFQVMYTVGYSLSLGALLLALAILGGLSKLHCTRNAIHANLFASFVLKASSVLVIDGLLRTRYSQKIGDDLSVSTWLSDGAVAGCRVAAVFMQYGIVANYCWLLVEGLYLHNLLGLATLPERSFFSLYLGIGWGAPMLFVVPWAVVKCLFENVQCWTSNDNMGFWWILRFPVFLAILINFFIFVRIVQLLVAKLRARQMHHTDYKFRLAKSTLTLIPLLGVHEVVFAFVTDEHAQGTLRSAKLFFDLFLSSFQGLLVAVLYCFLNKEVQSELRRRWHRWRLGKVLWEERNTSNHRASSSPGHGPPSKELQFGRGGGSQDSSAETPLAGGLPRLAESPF
Sequence of human GLP-1 receptor (hGLP-1R) (P43220 24-463): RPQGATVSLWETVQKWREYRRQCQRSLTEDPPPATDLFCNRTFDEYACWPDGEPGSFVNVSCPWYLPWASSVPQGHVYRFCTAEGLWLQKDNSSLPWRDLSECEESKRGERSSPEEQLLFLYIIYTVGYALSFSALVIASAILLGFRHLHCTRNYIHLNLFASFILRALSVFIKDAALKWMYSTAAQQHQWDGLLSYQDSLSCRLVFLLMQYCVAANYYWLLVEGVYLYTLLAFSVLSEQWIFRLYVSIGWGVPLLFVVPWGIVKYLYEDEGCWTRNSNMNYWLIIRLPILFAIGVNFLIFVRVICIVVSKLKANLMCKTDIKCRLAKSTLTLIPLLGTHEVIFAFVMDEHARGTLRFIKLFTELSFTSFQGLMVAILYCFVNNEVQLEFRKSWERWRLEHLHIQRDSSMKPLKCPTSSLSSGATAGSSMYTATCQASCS

For the compound `CCCCCCCCCCCCCCCCCC(=O)N[C@@H](CCC(=O)N[C@@H](CCC(=O)NCCOCCOCCC(=O)NCCOCCOCCC(=O)NCCCC[C@H](NC(=O)[C@H](CO)NC(=O)[C@H](CC(=O)O)NC(=O)[C@H](CC(C)C)NC(=O)[C@@H](NC(=O)[C@H](CCCCN)NC(=O)[C@H](CO)NC(=O)[C@@H](NC(=O)[C@H](CC(=O)O)NC(=O)[C@H](CO)NC(=O)[C@@H](NC(=O)[C@](C)(Cc1ccccc1)NC(=O)[C@H](CO)NC(=O)CNC(=O)[C@H](CCC(N)=O)NC(=O)[C@H](CO)NC(=O)[C@@H](N)Cc1c[nH]cn1)[C@@H](C)O)C(C)C)C(c1ccccc1)c1ccccc1)C(=O)N[C@@H](C)C(=O)N[C@@H](C)C(=O)N[C@@H](CCC(N)=O)C(=O)N[C@@H](CC(=O)O)C(=O)N[C@@](C)(Cc1ccccc1)C(=O)N[C@H](C(=O)N[C@@H](CCC(=O)O)C(=O)NC(C)(C)C(=O)N[C@@H](CC(C)C)C(=O)N[C@H](C(=O)N[C@@H](CO)C(=O)NCC(N)=O)[C@@H](C)CC)C(C)C)C(=O)O)C(=O)O` [Peptide 48] (H-HSQGS[αMeF]TSDVSK[Dip]LDSK([PEG2-PEG2-γGlu-γGlu-Stearoyl])AAQD[αMeF]VE[Aib]LISG-NH2; N-terminus assumed), the amount remaining at 0.5 h, 3.3 mg/mL in data set [1] is 94%. In data set [2], the EC50 turned out to be 19.9 pM and the “% Relative Potency Ratio” value stood at 4.3. Moreover, the EC50 in data set [3] is 43.2 pM.

Consider `CCCCCCCCCCCCCCCCCC(=O)N[C@@H](CCC(=O)N[C@@H](CCC(=O)NCCOCCOCCC(=O)NCCOCCOCCC(=O)NCCCC[C@H](NC(=O)[C@H](CO)NC(=O)[C@H](CC(=O)O)NC(=O)[C@H](CC(C)C)NC(=O)[C@@H](NC(=O)[C@H](CCCCN)NC(=O)[C@H](CO)NC(=O)[C@@H](NC(=O)[C@H](CC(=O)O)NC(=O)[C@H](CO)NC(=O)[C@@H](NC(=O)[C@](C)(Cc1ccccc1)NC(=O)[C@H](CO)NC(=O)CNC(=O)[C@H](CCC(N)=O)NC(=O)[C@H](CO)NC(=O)[C@@H](N)Cc1c[nH]cn1)[C@@H](C)O)C(C)C)C(c1ccccc1)c1ccccc1)C(=O)N[C@@H](C)C(=O)N[C@@H](C)C(=O)N[C@@H](CCC(N)=O)C(=O)N[C@@H](CC(=O)O)C(=O)N[C@@](C)(Cc1ccccc1)C(=O)N[C@H](C(=O)N[C@@H](CCC(=O)O)C(=O)NC(C)(C)C(=O)N[C@@H](CC(C)C)C(=O)N[C@@H](CC(C)C)C(=O)N[C@@H](CC(N)=O)C(=O)N[C@H](C(N)=O)[C@@H](C)O)C(C)C)C(=O)O)C(=O)O` [Peptide 51] (H-HSQGS[αMeF]TSDVSK[Dip]LDSK([PEG2-PEG2-γGlu-γGlu-Stearoyl])AAQD[αMeF]VE[Aib]LLNT-NH2; N-terminus assumed), for which, in data set [1], the fraction remaining at 0.5 h, 3.3 mg/mL is 91%. For the same compound, in data set [2], the concentration giving a half-maximal response (EC50) was determined as 18.1 pM and the “% Relative Potency Ratio” value is listed as 4.6. In addition, the EC50 in data set [3] was 41.9 pM.

In the case of `CCCCCCCCCCCCCCCCCC(=O)N[C@@H](CCC(=O)N[C@@H](CCC(=O)NCCOCCOCCC(=O)NCCOCCOCCC(=O)NCCCC[C@H](NC(=O)[C@H](CO)NC(=O)[C@H](CC(=O)O)NC(=O)[C@H](CC(C)C)NC(=O)[C@@H](NC(=O)[C@H](CCCCN)NC(=O)[C@H](CO)NC(=O)[C@@H](NC(=O)[C@H](CC(=O)O)NC(=O)[C@H](CO)NC(=O)[C@@H](NC(=O)[C@](C)(Cc1ccccc1)NC(=O)[C@H](CO)NC(=O)CNC(=O)[C@H](CCC(N)=O)NC(=O)[C@H](CO)NC(=O)[C@@H](N)Cc1c[nH]cn1)[C@@H](C)O)C(C)C)C(c1ccccc1)c1ccccc1)C(=O)N[C@@H](C)C(=O)N[C@@H](C)C(=O)N[C@@H](CCC(N)=O)C(=O)N[C@@H](CC(=O)O)C(=O)N[C@@](C)(Cc1ccccc1)C(=O)N[C@H](C(=O)N[C@@H](CCC(=O)O)C(=O)NC(C)(C)C(=O)N[C@@H](CC1CCCCC1)C(=O)N[C@@H](C)C(=O)N[C@@H](CC(N)=O)C(=O)N[C@H](C(N)=O)[C@@H](C)O)C(C)C)C(=O)O)C(=O)O` [Peptide 52] (H-HSQGS[αMeF]TSDVSK[Dip]LDSK([PEG2-PEG2-γGlu-γGlu-Stearoyl])AAQD[αMeF]VE[Aib][Cha]ANT-NH2; N-terminus assumed), in data set [1], the amount remaining at 0.5 h, 3.3 mg/mL is 90%. In data set [2], the EC50 was 22.7 pM and the “% Relative Potency Ratio” value was determined as 0.6. Also, the EC50 in data set [3] was 6.65 pM.

In turn, `CCCCCCCCCCCCCCCCCC(=O)N[C@@H](CCC(=O)N[C@@H](CCC(=O)NCCOCCOCCC(=O)NCCOCCOCCC(=O)NCCCC[C@H](NC(=O)[C@H](CO)NC(=O)[C@H](CC(=O)O)NC(=O)[C@H](CC(C)C)NC(=O)[C@@H](NC(=O)[C@H](CCCCN)NC(=O)[C@H](CO)NC(=O)[C@@H](NC(=O)[C@H](CC(=O)O)NC(=O)[C@H](CO)NC(=O)[C@@H](NC(=O)[C@](C)(Cc1ccccc1)NC(=O)[C@H](CO)NC(=O)CNC(=O)[C@H](CCC(N)=O)NC(=O)[C@H](CO)NC(=O)[C@@H](N)Cc1c[nH]cn1)[C@@H](C)O)C(C)C)C(c1ccccc1)c1ccccc1)C(=O)N[C@@H](C)C(=O)N[C@@H](C)C(=O)N[C@@H](CCC(N)=O)C(=O)N[C@@H](CC(=O)O)C(=O)N[C@@](C)(Cc1ccccc1)C(=O)N[C@H](C(=O)N[C@@H](CCC(=O)O)C(=O)NC(C)(C)C(=O)N[C@H](C(=O)N[C@H](C(=O)N[C@@H](CCC(=O)O)C(=O)NCC(=O)NCC(N)=O)C(C)C)C(C)C)C(C)C)C(=O)O)C(=O)O` [Peptide 53] (H-HSQGS[αMeF]TSDVSK[Dip]LDSK([PEG2-PEG2-γGlu-γGlu-Stearoyl])AAQD[αMeF]VE[Aib]VVEGG-NH2) returned a share remaining at 0.5 h, 3.3 mg/mL in data set [1] of 92%. In addition, the concentration for a half-maximal effect (EC50) in data set [2] is 3.03 pM; in data set [3], 18.9 pM. Also, the “% Relative Potency Ratio” value in data set [2] is listed as 12.3.

Turning to `CCCCCCCCCCCCCCCCCC(=O)N[C@@H](CCC(=O)N[C@@H](CCC(=O)NCCOCCOCCC(=O)NCCOCCOCCC(=O)NCCCC[C@H](NC(=O)[C@H](CO)NC(=O)[C@H](CC(=O)O)NC(=O)[C@H](CC(C)C)NC(=O)[C@@H](NC(=O)[C@H](CCCCN)NC(=O)[C@H](CO)NC(=O)[C@@H](NC(=O)[C@H](CC(=O)O)NC(=O)[C@H](CO)NC(=O)[C@@H](NC(=O)[C@](C)(Cc1ccccc1)NC(=O)[C@H](CO)NC(=O)CNC(=O)[C@H](CCC(N)=O)NC(=O)[C@H](CO)NC(=O)[C@@H](N)Cc1c[nH]cn1)[C@@H](C)O)C(C)C)[C@@H](C)CC)C(=O)N[C@@H](C)C(=O)N[C@@H](C)C(=O)N[C@@H](CCC(N)=O)C(=O)N[C@@H](CC(=O)O)C(=O)N[C@@](C)(Cc1ccccc1)C(=O)N[C@H](C(=O)N[C@@H](CCC(N)=O)C(=O)NC(C)(C)C(=O)N[C@H](C(=O)N[C@H](C(=O)N[C@@H](CC(N)=O)C(=O)N[C@H](C(N)=O)[C@@H](C)O)[C@@H](C)CC)[C@@H](C)CC)C(C)C)C(=O)O)C(=O)O` [Peptide 117] (H-HSQGS[αMeF]TSDVSKILDSK([PEG2-PEG2-γGlu-γGlu-Stearoyl])AAQD[αMeF]VQ[Aib]IINT-NH2; N-terminus assumed), in data set [1], the fraction remaining at 5 min, 3.3 mg/mL is 54%; the fraction remaining at 10 min, 3.3 mg/mL is 35%; the amount remaining at 0.25 h, 3.3 mg/mL is 22%; the share remaining at 0.5 h, 3.3 mg/mL was 8%. In data set [2], the EC50 was found to be 1.4 pM and the “% Relative Potency Ratio” value is 2.6. Moreover, in data set [3], the EC50 was 1.85 pM.
